{"source": "patent US20050261194A1", "about": "“Use of thymulin-like peptides for making pain-relieving medicines” (priority 2001, published 2005)", "type_in_all_cases": "in vivo, rat", "key": {"[1]": {"tested_on": "IL-6", "assay": "IL-6 in hind paw skin after intraplantar ET (ELISA)", "method": "(§1) These experiments required tissue sampling. The animals were sacrificed by anesthesia (sodium penthiobarbital, 50 mg/kg) and the skin of the hind paws is sampled either at 1 h (for the determination of the TNFα) or at 4 h (for the determination of IL-1β, IL-6 and NGF) after the endotoxin injection.\n(§2) These tissue samples are weighed and then quick frozen and stored at −70° C. with a view of proceeding with the evaluation of IL-1β, TNFα, IL-6 and NGF.\n(§3) In another series of experiments, the tissues are taken as described above using different groups of rats; the one group being pretreated with TAP 30 minutes before injection of ET and the other group having been injected with TAP only.\n(§4) The tissues are homogenized in a phosphate buffer solution (PBS, pH=7.4), containing 0.4 M of NaCl, 0.05% of Tween-20®, 0.5% bovine serum albumin (BSA), 0.1 mM of phenylmethylsulfonyl fluoride, 0.1 mM of benzethonium chloride, 10 mM of EDTA and 20 KI/mL of aprotinin.\n(§5) The mixture is then centrifuged at 1,200 g for 60 minutes at 4° C. The cytokines and the NFG contained in the supernatant were measured using ELIZA assays. […]"}, "[2]": {"tested_on": "TNF-α", "assay": "TNF-α in hind paw skin after intraplantar ET (ELISA)", "method": "as §1, §2, §3, §4, §5"}, "[3]": {"tested_on": "rats", "assay": "SNI (spared nerve injury) mononeuropathy: allodynia and hyperpathy", "method": "(§6) Adult male Sprague-Dawley rats (250-300 g) were used for these trials. Over the period of the experiments, the rats were placed under standard conditions (4 to 5 individuals to a cage, 12 hour day/night cycle, 22.2° C.), with free access to water and food. The necessary surgical procedures were done under deep anesthesia using ketamine (Ketalar®, 40-50 mg/kg, intraperitoneal injection), preceded by pre-anesthesia using chlorpromazine (8 mg/kg, idem) and atropine (0.05 mg/kg, idem).\n(§7) Mononeuropathy was induced in different groups of rats (n=6 rats in each group) according to the CCI (chronic constriction injury, chronic nerve constriction, Bennet G. J. et Xie Y. K., 1988, A peripheral mononeuropathy in rat that produces disorders of pain sensation like those seen in man, Pain, 33:87-107) or according to the SNI (spared nerve injury, spared nerve of the enervated paw, Decosterd I. et Woolf C. J., 2000, Spared nerve injury: an animal model of persistent peripheral neuropathic pain, Pain, 87:149-158). The sciatic nerve was exposed after dissection of the posterior hip and by incision through the skin and the fatty layer covering the popliteal fossa. For the CCI model, four loose ligatures (chromed catgut 4.0) were placed on the proximal side of the sciatic trifurcation. For the SNI model, the external popliteal sciatic nerve and the internal popliteal sciatic nerve were isolated, tightly ligatured and sectioned, while the sural nerve innervating the lateral aspect of the paw was left intact.\n(§8) The rats were placed in individual compartments of one cage, whose floor was made of a metal grating allowing access to the heel pad and to the lateral aspect of the paw with wires.\n(§9) For mechanical allodynia, the plantar surface of the hind paws (lateral surface for the SNI model and the median plantar surface for the CCI) was contacted with the von Frey wires (VFF 4.31 and 5.07, Stoelting Co., USA), which corresponded to the forces of 2.041 and 11.749 g (18.5 and 106.7 mN), respectively. […] The number of paw retractions induced by 10 trials was established for each rat on each hind paw prior to (baseline) and after induction of the mono-neuropathy. In normal rats, the low caliber wires (VFF 4.31) and higher caliber (VFF 5.07) induced an average 1.3±0.2 and 2.7±0.3 responses/10 trials, respectively.\n(§10) The method described by Choi et al. (1994, Behavioral signs of ongoing pain and cold allodynia in a rat model of neuropathic pain, Pain, 59:369-376) was used for evaluation of cold allodynia. It consists of applying several drops (approximately 50 μl) of an acetone solution on the paw and measuring the duration of the retraction reaction. One half second and 20 seconds are the values chosen arbitrarily for the minimum and maximum threshold, respectively.\n(§11) The duration (D) of retraction of the paw (RP) in response to a nociceptive ray of radiant heat oriented towards the plantar surface was established in the normal rat. […] the DRP after induction of the mononeuropathy was considered to be an indication of hyperalgesia. Each rat underwent two RP tests per session a minimum of every five minutes.\n(§12) The neuropathic manifestations were at maximum seven to ten days after induction of the neuropathy. The effects of the injections of TAP were tested during this period, which corresponds to the peak of the neuropathy.\n(§13) During the experiments done on rats suffering from neuropathy, allodynia and hyperpathy were evaluated in each group of animals with reference to the baseline condition established prior to induction of mononeuropathy. For example, the average of the number of paw withdrawal induced by each VFF was calculated for all of the rats of each group and the variation of this mean has been determined after treatment with TAP at different time periods after the injection. The same method has been followed for allodynia in the code and the hypertrophy relative to heat."}, "[4]": {"tested_on": "rats", "assay": "CCI (chronic constriction injury) mononeuropathy: allodynia and hyperpathy", "method": "as §6, §7, §8, §9, §10, §11, §12, §13"}, "[5]": {"tested_on": "rats", "assay": "Systemic inflammatory hyperalgesia induced by intraperitoneal ET; PP and TF tests", "conditions": "TAP 25 μg i.p. thirty minutes before ET 50 μg i.p.", "method": "In the second model, the rats receive an intraperitoneal injection of endotoxin ([…] in 100 μl of physiological saline solution).\nProtocol 2(a): One group of rats received one intraperitoneal injection of ET (50 μg), while the other group was pretreated with the protein analogue of thymuline (TAP) (25 μg, intraperitoneal injection), 30 minutes before the injection of ET.\nThe TF and PP tests were then done at 1 hour, 3 hours and 6 hours after the injection of ET."}, "[6]": {"conditions": "TAP 25 μg in control animals, no ET"}, "[7]": {"conditions": "SNI, meloxican 5 mg/kg i.p., morphine 4 mg/kg i.p., at peak of activity 45-60 minutes after injection, FIG. 10"}}}
{"substance": "Glu-Ala-lys-Ser-Gln-Gly-Gly-Ser-Asp (SQGGSD; N-terminal Glu-Ala-Lys; printed: Ser-Gln-Gly-Gly-Ser-Asp) [TAP]", "values": [{"measurement": "change of IL-6 concentration, TAP alone", "setting": "[1]; [6]", "value": "did not induce significant change"}, {"measurement": "IL-6 concentration", "setting": "[1]; TAP pretreatment before intraplantar ET, ET alone 2831±285, saline 250.0±50.0, p<0.001", "value": "1158±197.0", "unit": "pg/paw"}, {"measurement": "change of TNF-α concentration, TAP alone", "setting": "[2]; [6]", "value": "did not induce significant change"}, {"measurement": "effect on ET-induced increase of TNF-α concentration", "setting": "[2]; TAP pretreatment 30 min before ET, paw, one hour after ET, ET alone 345.0±61.0, saline 100.0±8.00 pg/paw", "value": "nullified the increase of the TNF-α concentration"}, {"measurement": "reversibility of the effects, time after injection", "setting": "[3]; SNI, TAP 5 μg i.p.", "value": "three to four hours"}, {"measurement": "time of maximum effect on all of the neuropathic manifestations after injection", "setting": "[3]; SNI, TAP 5 μg i.p.", "value": 75, "unit": "min"}, {"measurement": "dose giving maximal attenuation of the neuropathic manifestations", "setting": "[3]; SNI, doses 1, 5 and 25 μg compared, FIG. 7", "value": 5, "unit": "μg/rat"}, {"measurement": "reduction of tactile allodynia compared with meloxican and morphine", "setting": "[3]; [7]", "value": "greater reduction"}, {"measurement": "reduction of thermal hyperalgesia compared with meloxican and morphine", "setting": "[3]; [7]", "value": "greater reduction"}, {"measurement": "effect on cold allodynia, SNI model", "setting": "[3]; TAP 5 μg i.p., single injection", "value": "only moderately reduced"}, {"measurement": "effect on neuropathic manifestations, SNI model", "setting": "[3]; TAP 5 μg in 100 μl i.p., FIG. 6", "value": "significant attenuation"}, {"measurement": "reversibility of the effects, time after injection", "setting": "[4]; CCI, TAP 5 μg i.p.", "value": "three to four hours"}, {"measurement": "time of maximum effect on cold allodynia after injection", "setting": "[4]; CCI, TAP 5 μg i.p.", "value": 75, "unit": "min"}, {"measurement": "time of maximum effect on hyperpathy after injection", "setting": "[4]; CCI, TAP 5 μg i.p.", "value": 75, "unit": "min"}, {"measurement": "time of maximum effect on mechanical allodynia after injection", "setting": "[4]; CCI, TAP 5 μg i.p.", "value": "two hours"}, {"measurement": "dose giving maximal attenuation of the neuropathic manifestations", "setting": "[4]; CCI, doses 1, 5 and 25 μg compared, FIG. 7", "value": 5, "unit": "μg/rat"}, {"measurement": "effect on neuropathic manifestations, CCI model", "setting": "[4]; TAP 5 μg in 100 μl i.p., FIG. 5", "value": "significant attenuation"}, {"measurement": "effect on mechanical hyperalgesia (PP test)", "setting": "[5]; FIG. 4A", "value": "abolished"}, {"measurement": "effect on thermal hyperalgesia (TF test)", "setting": "[5]; FIG. 4B", "value": "abolished"}]}
